# Experimental data published in ChEMBL document CHEMBL6103537 (J Med Chem, 2025).
# Active and inactive are the calls of the source. No cut-off for these calls is given here.
# Key:
# [1] = biological target: T1, Protein cereblon/Signal transducer and activator of transcription 6 (Homo sapiens, UniProt P42226+Q96SW2); experiment: PROTAC activity at STAT6/CRBN in human MV4-11 cells assessed as reduction in STAT6 level incubated for 12 hrs by Western blot analysis; assay type: cell-based
# [2] = biological target: Protein cereblon/Signal transducer and activator of transcription 2 (Homo sapiens) (UniProt Q96SW2+P52630); experiment: PROTAC activity at STAT2/CRBN in human PBMC cells assessed as reduction in STAT2 level at 10 uM incubated for 18 hrs by Western blot analysis relative to control; assay type: cell-based
# [3] = biological target: T1, Protein cereblon/Signal transducer and activator of transcription 6; experiment: PROTAC activity at STAT6/CRBN in human L-1236 cells assessed as reduction in STAT6 level at 10 uM incubated for 24 hrs by Western blot analysis; assay type: cell-based
# Target sequence in this assay (P42226 2-847 limits assumed): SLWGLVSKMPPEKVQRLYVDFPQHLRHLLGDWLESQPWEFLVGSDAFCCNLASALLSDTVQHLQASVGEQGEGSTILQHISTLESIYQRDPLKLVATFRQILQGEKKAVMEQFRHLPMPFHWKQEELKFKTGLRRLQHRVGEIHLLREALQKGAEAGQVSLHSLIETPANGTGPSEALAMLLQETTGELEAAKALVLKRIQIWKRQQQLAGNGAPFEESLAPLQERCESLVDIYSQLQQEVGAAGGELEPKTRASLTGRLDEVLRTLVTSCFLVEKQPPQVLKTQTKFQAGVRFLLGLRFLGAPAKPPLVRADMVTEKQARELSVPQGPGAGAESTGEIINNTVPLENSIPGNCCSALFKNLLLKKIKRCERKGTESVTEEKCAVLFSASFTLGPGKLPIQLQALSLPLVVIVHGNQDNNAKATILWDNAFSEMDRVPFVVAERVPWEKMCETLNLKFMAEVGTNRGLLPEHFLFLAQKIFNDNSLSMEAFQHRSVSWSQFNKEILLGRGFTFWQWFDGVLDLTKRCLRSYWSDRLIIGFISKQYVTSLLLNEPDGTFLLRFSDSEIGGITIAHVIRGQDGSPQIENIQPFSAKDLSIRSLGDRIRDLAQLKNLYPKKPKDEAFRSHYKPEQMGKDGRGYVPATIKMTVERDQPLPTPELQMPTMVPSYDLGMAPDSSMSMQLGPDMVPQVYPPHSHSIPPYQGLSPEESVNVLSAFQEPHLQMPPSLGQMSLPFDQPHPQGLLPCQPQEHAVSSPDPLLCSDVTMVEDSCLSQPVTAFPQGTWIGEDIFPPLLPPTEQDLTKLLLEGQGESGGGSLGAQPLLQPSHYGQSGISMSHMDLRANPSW
# Target sequence in this assay (Q96SW2 whole entry partner): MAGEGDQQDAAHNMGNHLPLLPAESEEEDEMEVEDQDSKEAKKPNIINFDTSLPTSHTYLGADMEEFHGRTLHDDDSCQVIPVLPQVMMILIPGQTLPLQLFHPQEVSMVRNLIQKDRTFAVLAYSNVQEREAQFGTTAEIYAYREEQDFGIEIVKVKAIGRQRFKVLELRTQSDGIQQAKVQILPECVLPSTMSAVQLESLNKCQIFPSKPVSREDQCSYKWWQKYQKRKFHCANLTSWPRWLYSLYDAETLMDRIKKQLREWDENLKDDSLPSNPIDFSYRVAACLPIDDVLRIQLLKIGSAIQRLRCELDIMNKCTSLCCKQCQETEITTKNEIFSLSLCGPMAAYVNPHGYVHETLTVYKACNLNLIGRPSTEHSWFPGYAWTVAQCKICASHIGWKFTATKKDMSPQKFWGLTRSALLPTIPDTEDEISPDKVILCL
# [4] = biological target: Protein cereblon/Signal transducer and activator of transcription 5A/Signal transducer and activator of transcription 5B (Homo sapiens) (UniProt P42229+P51692+Q96SW2); experiment: PROTAC activity at STAT5/CRBN in human L-1236 cells assessed as reduction in STAT5 level at 10 uM incubated for 24 hrs by Western blot analysis; assay type: cell-based
# [5] = biological target: T1, Protein cereblon/Signal transducer and activator of transcription 6; experiment: PROTAC activity at STAT6/CRBN in human PBMC cells assessed as reduction in STAT6 level at 5 uM incubated for 18 hrs by Western blot analysis relative to control; assay type: cell-based; design: scale not given: the % may be the effect or the level left
# Target sequence in this assay (P42226 2-847 limits assumed): as the sequence (P42226 2-847 limits assumed) above
# Target sequence in this assay (Q96SW2 whole entry partner): as the sequence (Q96SW2 whole entry partner) above
# [6] = Downregulation of AKR7A3 level in human PBMC cells at 5 uM incubated for 18 hrs by Western blot analysis relative to control; assay type: functional
# PBMC [7] = experiment: Downregulation of STAT2 level in human PBMC cells at 5 uM incubated for 18 hrs by Western blot analysis relative to control; assay type: functional, cell-based
# PBMC [8] = experiment: Downregulation of STAT3 level in human PBMC cells at 5 uM incubated for 18 hrs by Western blot analysis relative to control; assay type: functional, cell-based
# PBMC [9] = experiment: Downregulation of STAT4 level in human PBMC cells at 5 uM incubated for 18 hrs by Western blot analysis relative to control; assay type: functional, cell-based
# [10] = biological target: T1, Protein cereblon/Signal transducer and activator of transcription 6; experiment: PROTAC activity at STAT6/CRBN in human MV4-11 cells assessed as reduction in STAT6 level at 2 uM by HiBiT bioluminescence assay; assay type: cell-based; settings: time <= 1200.0 min
# Target sequence in this assay (P42226 2-847 limits assumed): as the sequence (P42226 2-847 limits assumed) above
# Target sequence in this assay (Q96SW2 whole entry partner): as the sequence (Q96SW2 whole entry partner) above
# [11] = biological target: T1, Protein cereblon/Signal transducer and activator of transcription 6; experiment: PROTAC activity at STAT6/CRBN in human MV4-11 cells assessed as reduction in STAT6 level at 2 uM measured upto 1200 mins in presence of AK-068 by HiBiT bioluminescence assay; assay type: cell-based
# Target sequence in this assay (P42226 2-847 limits assumed): as the sequence (P42226 2-847 limits assumed) above
# Target sequence in this assay (Q96SW2 whole entry partner): as the sequence (Q96SW2 whole entry partner) above
# [12] = biological target: Protein cereblon/Zinc finger protein Aiolos (Homo sapiens) (UniProt Q96SW2+Q9UKT9); experiment: PROTAC activity at CRBN/IKZF3 in human Jurkat cells assessed as degradation of IKZF3 protein at 0.01 to 10 uM incubated for 20 hrs by Western blotting analysis; assay type: cell-based; settings: dose 0.01-10 µM
# [13] = Metabolic stability in human liver microsome assessed as parent compound remaining measured at 5 mins in presence of NADPH by LC-MS/MS analysis; assay type: ADME; settings: liver microsomes, read-out: Stability
# [14] = Metabolic stability in human liver microsome assessed as parent compound remaining measured at 15 mins in presence of NADPH by LC-MS/MS analysis; assay type: ADME; settings: liver microsomes, read-out: Stability
# [15] = Metabolic stability in dog liver microsome assessed as parent compound remaining measured at 5 mins in presence of NADPH by LC-MS/MS analysis; assay type: ADME, Canis lupus familiaris; settings: liver microsomes, read-out: Stability
# [16] = Metabolic stability in dog liver microsome assessed as parent compound remaining measured at 15 mins in presence of NADPH by LC-MS/MS analysis; assay type: ADME, Canis lupus familiaris; settings: liver microsomes, read-out: Stability
# [17] = Metabolic stability in monkey liver microsome assessed as parent compound remaining measured at 15 mins in presence of NADPH by LC-MS/MS analysis; assay type: ADME, Macaca mulatta; settings: rhesus monkey, liver microsomes, read-out: Stability
# [18] = Metabolic stability in monkey liver microsome assessed as parent compound remaining measured at 30 mins in presence of NADPH by LC-MS/MS analysis; assay type: ADME, Macaca mulatta; settings: rhesus monkey, liver microsomes, read-out: Stability
# [19] = Metabolic stability in monkey liver microsome assessed as parent compound remaining measured at 45 mins in presence of NADPH by LC-MS/MS analysis; assay type: ADME, Macaca mulatta; settings: rhesus monkey, liver microsomes, read-out: Stability
# [20] = Metabolic stability in rat liver microsome assessed as parent compound remaining measured at 5 mins in presence of NADPH by LC-MS/MS analysis; assay type: ADME; settings: liver microsomes, read-out: Stability
# [21] = Metabolic stability in rat liver microsome assessed as parent compound remaining measured at 15 mins in presence of NADPH by LC-MS/MS analysis; assay type: ADME; settings: liver microsomes, read-out: Stability
# [22] = Metabolic stability in human liver microsome assessed as half life measured upto 60 mins in presence of NADPH by LC-MS/MS analysis; assay type: ADME; settings: liver microsomes
# [23] = Stability in human plasma assessed as parent compound remaining measured at 60 mins by LC-MS/MS analysis; assay type: ADME, cell-free; settings: read-out: Stability
# [24] = Stability in dog plasma assessed as parent compound remaining measured at 30 mins by LC-MS/MS analysis; assay type: ADME, cell-free, Canis lupus familiaris; settings: read-out: Stability
# [25] = Stability in dog plasma assessed as parent compound remaining measured at 60 mins by LC-MS/MS analysis; assay type: ADME, cell-free, Canis lupus familiaris; settings: read-out: Stability
# [26] = Stability in dog plasma assessed as parent compound remaining measured at 120 mins by LC-MS/MS analysis; assay type: ADME, cell-free, Canis lupus familiaris; settings: read-out: Stability
# [27] = Stability in monkey plasma assessed as parent compound remaining measured at 120 mins by LC-MS/MS analysis; assay type: ADME, cell-free, Macaca mulatta; settings: rhesus monkey, read-out: Stability
# [28] = Stability in rat plasma assessed as parent compound remaining measured at 15 mins by LC-MS/MS analysis; assay type: ADME, cell-free; settings: read-out: Stability
# [29] = Stability in rat plasma assessed as parent compound remaining measured at 30 mins by LC-MS/MS analysis; assay type: ADME, cell-free; settings: read-out: Stability
# [30] = Stability in mouse plasma assessed as parent compound remaining measured at 5 mins by LC-MS/MS analysis; assay type: ADME, cell-free; settings: read-out: Stability
# [31] = Stability in mouse plasma assessed as parent compound remaining measured at 30 mins by LC-MS/MS analysis; assay type: ADME, cell-free; settings: read-out: Stability
# [32] = Stability in mouse plasma assessed as half life measured upto 60 mins by LC-MS/MS analysis; assay type: ADME, cell-free
# Protein cereblon/Signal transducer and activator of transcription 2 (Homo sapiens), sequence (P52630 whole entry, looked up): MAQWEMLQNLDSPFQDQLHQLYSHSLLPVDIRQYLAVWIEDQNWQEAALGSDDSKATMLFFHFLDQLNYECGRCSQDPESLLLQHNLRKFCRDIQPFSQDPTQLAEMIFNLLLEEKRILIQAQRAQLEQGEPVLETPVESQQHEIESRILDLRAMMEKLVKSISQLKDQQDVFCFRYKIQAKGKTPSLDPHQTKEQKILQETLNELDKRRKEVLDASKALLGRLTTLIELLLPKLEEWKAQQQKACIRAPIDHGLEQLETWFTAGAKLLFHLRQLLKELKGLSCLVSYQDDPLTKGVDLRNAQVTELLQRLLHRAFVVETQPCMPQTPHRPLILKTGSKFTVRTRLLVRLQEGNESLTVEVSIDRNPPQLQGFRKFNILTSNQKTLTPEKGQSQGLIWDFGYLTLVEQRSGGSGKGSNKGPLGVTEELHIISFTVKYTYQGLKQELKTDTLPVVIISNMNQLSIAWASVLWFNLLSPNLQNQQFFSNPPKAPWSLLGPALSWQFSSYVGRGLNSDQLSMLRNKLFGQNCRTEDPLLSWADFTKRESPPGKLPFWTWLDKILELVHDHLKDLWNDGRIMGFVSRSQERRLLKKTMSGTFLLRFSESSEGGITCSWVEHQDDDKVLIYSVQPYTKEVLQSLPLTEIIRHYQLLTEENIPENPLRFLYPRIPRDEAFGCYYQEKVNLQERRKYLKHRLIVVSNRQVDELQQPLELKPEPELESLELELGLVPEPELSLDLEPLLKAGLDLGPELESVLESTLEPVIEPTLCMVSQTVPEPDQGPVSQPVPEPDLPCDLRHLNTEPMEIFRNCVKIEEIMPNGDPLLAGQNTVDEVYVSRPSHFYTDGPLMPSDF
# Protein cereblon/Signal transducer and activator of transcription 2 (Homo sapiens), sequence (Q96SW2 whole entry, looked up): as the sequence (Q96SW2 whole entry partner) above
# Protein cereblon/Signal transducer and activator of transcription 5A/Signal transducer and activator of transcription 5B (Homo sapiens), sequence (P42229 whole entry, looked up): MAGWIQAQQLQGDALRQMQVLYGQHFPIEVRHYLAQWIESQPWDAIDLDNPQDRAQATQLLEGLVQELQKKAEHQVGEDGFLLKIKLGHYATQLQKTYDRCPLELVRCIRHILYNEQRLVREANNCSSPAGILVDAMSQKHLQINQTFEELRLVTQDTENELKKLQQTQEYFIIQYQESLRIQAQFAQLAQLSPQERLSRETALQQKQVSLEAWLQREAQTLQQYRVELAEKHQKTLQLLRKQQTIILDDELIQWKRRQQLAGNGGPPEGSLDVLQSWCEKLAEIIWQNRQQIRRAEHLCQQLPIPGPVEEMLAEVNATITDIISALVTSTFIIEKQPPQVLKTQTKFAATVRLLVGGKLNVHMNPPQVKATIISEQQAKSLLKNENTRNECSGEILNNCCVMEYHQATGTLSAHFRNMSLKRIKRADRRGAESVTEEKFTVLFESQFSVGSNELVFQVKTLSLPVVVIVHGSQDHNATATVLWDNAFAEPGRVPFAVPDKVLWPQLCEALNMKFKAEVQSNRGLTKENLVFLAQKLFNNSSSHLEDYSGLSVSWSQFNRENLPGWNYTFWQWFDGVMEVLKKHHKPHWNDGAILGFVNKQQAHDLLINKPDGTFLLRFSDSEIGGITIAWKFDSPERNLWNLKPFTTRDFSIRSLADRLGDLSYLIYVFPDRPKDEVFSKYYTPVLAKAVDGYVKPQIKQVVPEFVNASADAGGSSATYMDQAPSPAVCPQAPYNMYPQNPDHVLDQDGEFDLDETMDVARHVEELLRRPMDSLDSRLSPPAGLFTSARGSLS
# Protein cereblon/Signal transducer and activator of transcription 5A/Signal transducer and activator of transcription 5B (Homo sapiens), sequence (P51692 whole entry, looked up): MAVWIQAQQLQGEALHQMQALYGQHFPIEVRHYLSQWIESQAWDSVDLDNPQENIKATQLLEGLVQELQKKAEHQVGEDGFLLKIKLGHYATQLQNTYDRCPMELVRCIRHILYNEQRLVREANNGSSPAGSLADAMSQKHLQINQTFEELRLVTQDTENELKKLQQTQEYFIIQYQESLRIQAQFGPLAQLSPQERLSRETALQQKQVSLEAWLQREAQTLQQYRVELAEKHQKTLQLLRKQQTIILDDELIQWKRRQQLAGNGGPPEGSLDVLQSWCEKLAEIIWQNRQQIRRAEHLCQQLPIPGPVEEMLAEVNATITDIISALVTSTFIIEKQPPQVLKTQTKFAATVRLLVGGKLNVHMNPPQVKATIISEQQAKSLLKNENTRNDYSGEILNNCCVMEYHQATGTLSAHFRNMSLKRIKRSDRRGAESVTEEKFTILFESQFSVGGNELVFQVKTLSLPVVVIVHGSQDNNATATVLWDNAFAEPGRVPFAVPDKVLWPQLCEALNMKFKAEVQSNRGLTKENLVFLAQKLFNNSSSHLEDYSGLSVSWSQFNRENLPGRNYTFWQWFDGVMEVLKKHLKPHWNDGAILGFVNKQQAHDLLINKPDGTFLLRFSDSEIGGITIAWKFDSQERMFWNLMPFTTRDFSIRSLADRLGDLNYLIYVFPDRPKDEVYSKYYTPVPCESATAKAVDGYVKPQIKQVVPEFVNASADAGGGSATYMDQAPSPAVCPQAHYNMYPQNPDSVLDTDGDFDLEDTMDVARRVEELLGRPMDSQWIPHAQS
# Protein cereblon/Signal transducer and activator of transcription 5A/Signal transducer and activator of transcription 5B (Homo sapiens), sequence (Q96SW2 whole entry, looked up): as the sequence (Q96SW2 whole entry partner) above
smiles,measurement,setting,value
CC(C)(C)[C@H](NC(=O)c1cc2cc(C(F)(F)P(=O)(O)O)ccc2s1)C(=O)N1C[C@@H](OCCCCCC#Cc2cccc3c2CN(C2CCC(=O)NC2=O)C3=O)C[C@H]1C(=O)N1CCO[C@H](c2ccccc2)C1 (some centres not stated),DC50,[1],1 nM
same,Activity,[2],No effect
same,Activity,[3],No effect
same,Activity,[4],No effect
same,Activity,[5],79%
same,Activity,[6],51%
same,Activity,PBMC [7],inactive
same,Activity,PBMC [8],inactive
same,Activity,PBMC [9],inactive
same,Activity,[10],Time-dependent-effect
same,Activity,[11],Active
same,Activity,[12],No effect
same,remaining at 5 min,[13],94%
same,remaining at 0.25 h,[14],98%
same,remaining at 5 min,[15],97%
same,remaining at 0.25 h,[16],97%
same,remaining at 0.25 h,[17],83%
same,remaining at 0.5 h,[18],70%
same,remaining at 0.75 h,[19],61%
same,remaining at 5 min,[20],99%
same,remaining at 0.25 h,[21],98%
same,half-life,[22],> 2 h
same,remaining at 1 h,[23],94%
same,remaining at 0.5 h,[24],75%
same,remaining at 1 h,[25],69%
same,remaining at 2 h,[26],67%
same,remaining at 2 h,[27],82%
same,remaining at 0.25 h,[28],96%
same,remaining at 0.5 h,[29],85%
same,remaining at 5 min,[30],102%
same,remaining at 0.5 h,[31],96%
same,half-life,[32],> 2 h
